Laboratory results: patent publication US20030190378A1, “Extract of processed Panax genus plant, the preparation method thereof, and compositions containing the same” (priority 2002, published 2003)

Tests used:
ICR mouse = assay: Passive cutaneous anaphylaxis test (Evans blue leakage); type: in vivo; conditions: for anti-allergic effect in words, passive cutaneous anaphylaxis: Tables 5 and 6
Method: 50 μl of diluted solution with physiological saline containing 10 μg of mouse IgE serum against dinitrophenol-human serum album (DNP-HSA, Sigma, USA), was injected to the back of ICR mouse (Dae Han Co., Ltd) anesthetized with ether to be passive sensitization. After 48 hours, 0.2 ml of physiological saline solution containing 0.2 mg of DNP-HSA and 1.6 mg of Evans blue was injected to the mouse's tail vein and the mouse was sacrificed by cervical dislocation to death and then the amount of Evans blue dye leaked to mouse's back was measured as follows. Certain circular area of mouse's back distant from the area where IGE injected about 1 cm^2 far, was cut and put into a test tube. 4 ml of mixture solution of 0.6M phosphoric acid and acetone with a ratio of 5:13 was added to the tube, stirred and filtered. The amount of dye was measured by colorimetric analysis at 620 nm.

RBL-2H3 cell line = assay: Anti-allergic effect using IgE-sensitized, DNP-BSA-activated RBL-2H3 cell line (p-NAG substrate readout); type: cell-based, rat; conditions: for Anti-allergic effect in RBL cell IC50 / IC50: Table 4, saponin fractions and isolated saponins; for anti-allergic effect in words, allergy inhibition test using RBL-2H3 cell line: Tables 3 and 4; for IC50: Rattus norvegicus
Method: In order to confirm the anti-allergic effect of the extracts in the present invention, the experiment was performed by the procedure described in the literature (Inagaki. et al., Int, Arch. Allergy Appl. Immunol., 87, pp254-259, 1988).
RBL-2H3 cell line (rat basophil cell line, Korean Cell Line Bank, Cat. No.22256) were incubated with DMEM (Dulbecco's modified Eagle's) medium (Sigma No. D-5648, USA) containing 10% FBS (Fetal Bovine Serum), L-glutamine for 2 hours at 37° C. by using humidified 5% CO2 incubator and attached cells were floated by trypsin-EDTA solution, separated and recovered to use in further experiment. Each RBL-2H3 cells were transferred to 24 well plate to be adjusted to 5×10^5 cells/well, treated with 0.5 μg of mouse monoclonal IgE and incubated for 12 hours to be sensitization. The cell was washed with 0.5 ml of siraganian buffer solution (pH 7.2) composed of 119 mM NaCl, 5 mM KCl, 0.4 mM MgCl2, 25 mM PIPES and 40 mM NaOH. 0.16 ml of siraganian buffer solution containing 5.5 mM glucose, 1 mM CaCl2 and 0.1% BSA, was added thereto again and incubated for 10 minutes at 37° C. Thereafter, 40 μl of test sample solution containing the extract in the Comparative Example 1, 2, 3 and Example 1, 2, 3 were added thereto. After 20 minutes, the cells were activated by adding 0.02 ml of antigen, 1 μg/ml of DNP-BSA, for 10 minutes at 37° C., centrifuged at the speed of 2000 rpm for 10 minutes and 0.025 ml of the supernatant was transferred to 96 well plate. 0.025 ml of 1 mM p-NAG substrate solution prepared by dissolving p-nitrophenyl-N-acetyl-β-D-glucosaminide with 0.1M citrate buffer solution adjusted to pH 4.5, was added thereto, incubated for 60 minutes at 37° C. and 0.2 ml of 0.1M Na2CO3/NaHCO3 was added thereto to quench the reaction to measure their optical density at 405 nm by ELISA analyzer.

| Molecule | Passive cutaneous anaphylaxis Inhibitory rate (%) Abdominal administration (ICR mouse; Table 6, 25 mg/kg abdominal) [%] | Anti-allergic effect in RBL cell IC50 (RBL-2H3 cell line) [µg/mL] | also measured |
| --- | --- | --- | --- |
| CC(C)=CCC=C(C)[C@H]1CC[C@]2(C)[C@@H]1[C@H](O)C[C@@H]1[C@@]3(C)CC[C@H](O)C(C)(C)[C@@H]3[C@@H](O[C@@H]3O[C@H](CO)[C@@H](O)[C@H](O)[C@H]3O[C@@H]3O[C@@H](C)[C@H](O)[C@@H](O)[C@H]3O)C[C@]12C (stereo in doubt) [Ginsenoside F4] | 63 | – | – |
| CC(C)=CCC[C@@](C)(O)[C@H]1CC[C@]2(C)[C@@H]1[C@H](O)C[C@@H]1[C@@]3(C)CC[C@H](O[C@@H]4O[C@H](CO)[C@@H](O)[C@H](O)[C@H]4O)C(C)(C)[C@@H]3CC[C@]12C [20(R)-ginsenoside Rh2] | – | >0.2 | – |
| CC(C)=CCC[C@@](C)(O)[C@H]1CC[C@]2(C)[C@@H]1[C@H](O)C[C@@H]1[C@@]3(C)CC[C@H](O)C(C)(C)[C@@H]3CC[C@]12C [20(R)-protopanaxadiol] | – | >0.2 | – |
| CC(C)=CCC[C@](C)(O)[C@H]1CC[C@]2(C)[C@@H]1[C@H](O)C[C@@H]1[C@@]3(C)CC[C@H](O[C@@H]4O[C@H](CO)[C@@H](O)[C@H](O)[C@H]4O[C@@H]4O[C@H](CO)[C@@H](O)[C@H](O)[C@H]4O)C(C)(C)[C@@H]3CC[C@]12C [20(S)-ginsenoside Rg3] | – | >0.2 | – |
| CC(C)=CCC[C@](C)(O)[C@H]1CC[C@]2(C)[C@@H]1[C@H](O)C[C@@H]1[C@@]3(C)CC[C@H](O[C@@H]4O[C@H](CO)[C@@H](O)[C@H](O)[C@H]4O)C(C)(C)[C@@H]3CC[C@]12C [20(S)-ginsenoside Rh2] | – | 0.03 | – |
| CC(C)=CCC[C@](C)(O)[C@H]1CC[C@]2(C)[C@@H]1[C@H](O)C[C@@H]1[C@@]3(C)CC[C@H](O)C(C)(C)[C@@H]3CC[C@]12C [20(S)-protopanaxadiol] | – | >0.2 | – |
| O=C([O-])c1cc(=O)c2c(OCC(O)COc3cccc4oc(C(=O)[O-])cc(=O)c34)cccc2o1.[Na+].[Na+] [DSCG, Disodium Cromoglycate, reference compound] | – | 0.498 | Passive cutaneous anaphylaxis Inhibitory rate (%) (ICR mouse; Table 5, 100 mg/kg): 37%; Passive cutaneous anaphylaxis Inhibitory rate (%) Oral administration (ICR mouse; Table 6, 100 mg/kg oral): 37% |
| CC(C)=CC/C=C(\C)[C@H]1CC[C@]2(C)[C@@H]1[C@H](O)C[C@@H]1[C@@]3(C)CC[C@H](O[C@@H]4O[C@H](CO)[C@@H](O)[C@H](O)[C@H]4O[C@@H]4O[C@H](CO)[C@@H](O)[C@H](O)[C@H]4O)C(C)(C)[C@@H]3CC[C@]12C [Gginsenoside Rg5, ginsenoside Rg5] | 45 | – | – |
| CC(C)=CCC[C@](C)(O[C@@H]1O[C@H](CO)[C@@H](O)[C@H](O)[C@H]1O)[C@H]1CC[C@]2(C)[C@@H]1[C@H](O)C[C@@H]1[C@@]3(C)CC[C@H](O)C(C)(C)[C@@H]3[C@@H](O)C[C@]12C [Ginsenoside F1] | 69 | 0.13 | anti-allergic effect in words, passive cutaneous anaphylaxis (ICR mouse): more potent inhibitory effects than that of DSCG; anti-allergic effect in words, allergy inhibition test using RBL-2H3 cell line (RBL-2H3 cell line): more potent inhibition effect than that of DSCG |
| CC(C)=CCC[C@](C)(O[C@@H]1O[C@H](CO[C@@H]2O[C@H](CO)[C@@H](O)[C@H](O)[C@H]2O)[C@@H](O)[C@H](O)[C@H]1O)[C@H]1CC[C@]2(C)[C@@H]1[C@H](O)C[C@@H]1[C@@]3(C)CC[C@H](O[C@@H]4O[C@H](CO)[C@@H](O)[C@H](O)[C@H]4O[C@@H]4O[C@H](CO)[C@@H](O)[C@H](O)[C@H]4O)C(C)(C)[C@@H]3CC[C@]12C [Ginsenoside Rb1] | – | >0.2 | Passive cutaneous anaphylaxis Inhibitory rate (%) Abdominal administration (ICR mouse; Table 6, 50 mg/kg abdominal): 17% |
| CC(C)=CCC[C@](C)(O[C@@H]1O[C@H](CO[C@@H]2OC[C@H](O)[C@H](O)[C@H]2O)[C@@H](O)[C@H](O)[C@H]1O)[C@H]1CC[C@]2(C)[C@@H]1[C@H](O)C[C@@H]1[C@@]3(C)CC[C@H](O[C@@H]4O[C@H](CO)[C@@H](O)[C@H](O)[C@H]4O[C@@H]4O[C@H](CO)[C@@H](O)[C@H](O)[C@H]4O)C(C)(C)[C@@H]3CC[C@]12C [Ginsenoside Rb2] | 12 | >0.2 | – |
| CC(C)=CCC[C@](C)(O[C@@H]1O[C@H](CO)[C@@H](O)[C@H](O)[C@H]1O)[C@H]1CC[C@]2(C)[C@@H]1[C@H](O)C[C@@H]1[C@@]3(C)CC[C@H](O)C(C)(C)[C@@H]3[C@@H](O[C@@H]3O[C@H](CO)[C@@H](O)[C@H](O)[C@H]3O[C@@H]3O[C@@H](C)[C@H](O)[C@@H](O)[C@H]3O)C[C@]12C [Ginsenoside Re] | 15 | – | IC50 (RBL-2H3 cell line): 0.06 µg/mL |
| CC(C)=CCC[C@](C)(O)[C@H]1CC[C@]2(C)[C@@H]1[C@H](O)C[C@@H]1[C@@]3(C)CC[C@H](O)C(C)(C)[C@@H]3[C@@H](O[C@@H]3O[C@H](CO)[C@@H](O)[C@H](O)[C@H]3O[C@@H]3O[C@H](CO)[C@@H](O)[C@H](O)[C@H]3O)C[C@]12C [Ginsenoside Rf] | 40 | – | IC50 (RBL-2H3 cell line): 0.11 µg/mL |
| CC(C)=CCC[C@](C)(O[C@@H]1O[C@H](CO)[C@@H](O)[C@H](O)[C@H]1O)[C@H]1CC[C@]2(C)[C@@H]1[C@H](O)C[C@@H]1[C@@]3(C)CC[C@H](O)C(C)(C)[C@@H]3[C@@H](O[C@@H]3O[C@H](CO)[C@@H](O)[C@H](O)[C@H]3O)C[C@]12C [Ginsenoside Rg1] | 37 | 0.08 | – |
| CC(C)=CCC[C@](C)(O)[C@H]1CC[C@]2(C)[C@@H]1[C@H](O)C[C@@H]1[C@@]3(C)CC[C@H](O[C@@H]4O[C@H](CO)[C@@H](O)[C@H](O)[C@H]4O[C@@H]4O[C@H](CO)[C@@H](O)[C@H](O)[C@H]4O)C(C)(C)[C@@H]3CC[C@]12C [Ginsenoside Rg3] | – | – | Passive cutaneous anaphylaxis Inhibitory rate (%) Abdominal administration (ICR mouse; Table 6, abdominal, dosage cell empty): 47%; Passive cutaneous anaphylaxis Inhibitory rate (%) Oral administration (ICR mouse; Table 6, oral, dosage cell empty): 38% |
| CC(C)=CCC[C@](C)(O)[C@H]1CC[C@]2(C)[C@@H]1[C@H](O)C[C@@H]1[C@@]3(C)CC[C@H](O)C(C)(C)[C@@H]3[C@@H](O[C@@H]3O[C@H](CO)[C@@H](O)[C@H](O)[C@H]3O)C[C@]12C [Ginsenoside Rh1] | 87 | 0.02 | Passive cutaneous anaphylaxis Inhibitory rate (%) Oral administration (ICR mouse; Table 6, 25 mg/kg oral): 79%; anti-allergic effect in words, passive cutaneous anaphylaxis (ICR mouse): more potent inhibitory effects than that of DSCG; anti-allergic effect in words, allergy inhibition test using RBL-2H3 cell line (RBL-2H3 cell line): more potent inhibition effect than that of DSCG |
| CC(C)=CCC[C@](C)(O)[C@H]1CC[C@]2(C)[C@@H]1[C@H](O)C[C@@H]1[C@@]3(C)CC[C@H](O[C@@H]4O[C@H](CO)[C@@H](O)[C@H](O)[C@H]4O)C(C)(C)[C@@H]3CC[C@]12C [Ginsenoside Rh2] | 88 | – | Passive cutaneous anaphylaxis Inhibitory rate (%) Oral administration (ICR mouse; Table 6, 25 mg/kg oral): 36%; anti-allergic effect in words, passive cutaneous anaphylaxis (ICR mouse): more potent inhibitory effects than that of DSCG; anti-allergic effect in words, allergy inhibition test using RBL-2H3 cell line (RBL-2H3 cell line): more potent inhibition effect than that of DSCG |
| CC(C)=CCC[C@@](C)(O)[C@H]1CC[C@]2(C)[C@@H]1[C@H](O)C[C@@H]1[C@@]3(C)CC[C@H](O)C(C)(C)[C@@H]3CC[C@]12C [protopanaxadiol] | 25 | – | – |
| Δ^20-ginsenoside Rg3 | – | 0.09 | – |
